These results are taken from patent publication US5612344A, “Triazoloquinazolines for the treatment of central nervous disorders” (BASF Aktiengesellschaft, priority 1992, dated 1997).

Assay [1] addresses T1, NMDA (N-methyl-D-aspartate) receptors (Rattus norvegicus, UniProt P35439).
T1 construct: isolated membrane material from rat cerebra; from tissue; host or cells: rat cerebrum membranes
Put plainly: Binding of 3H-5,7-dichlorokynurenic acid (displacement from rat cerebra membrane material). To be noted: displacement of 3H-5,7-dichlorokynurenic acid, rat cerebra membranes, pH 7.4, on ice 30 minutes. How it is done:
(§1) The pharmacological activity of the compounds I according to the invention was investigated on isolated membrane material from rat cerebra. To do this, the membrane material was treated in the presence of the compounds according to the invention with the radiolabeled substances ^3 H-2-amino-3-hydroxy-5-methyl-4-isoxazolepropionic acid (^3 H-AMPA) and ^3 H-5,7-dichlorokynurenic acid, these binding to specific receptors (AMPA and NMDA (N-methyl-D-aspartate) receptors respectively). Subsequently the radioactivity on the treated membranes was measured by scintillation counting. The amounts of bound ^3 H-AMPA and ^3 H-5,7-dichlorokynurenic acid, or in each case the amounts of these radiolabeled substances displaced, were determined from the bound radioactivity. The dissociation constant KI (I=inhibitor) which results from this and which is a measure of the displacing effect of the active substance according to the invention was found by iterative non-linear regression analysis using the statistical analysis system (SAS) on an IBM computer similar to the "ligand" program of P. J. Munson and D. Rodbard (Analytical Biochem., […], Ligand: Versatile Computerized Approach for Characterization of Ligand Binding Systems).
2. Binding of ^3 H-5,7-dichlorokynurenic acid
To prepare the membrane material, freshly removed rat cerebra were homogenized together with about 10 times the volume of a buffer solution A composed of 50 mM TRIS-HCl and 10 mM EDTA, pH 7.4. The suspension was centrifuged at 48,000 g for 20 minutes. […]
For the binding assay, the protein material was thawed at 37° C. and washed twice by centrifuging at 48,000 g (20 minutes) and subsequently suspending in a buffer solution B composed of 50 mM TRIS-HCl, pH 7.4. […] The radioactivity of the ^3 H-5,7-dichlorokynurenic acid bound to the membranes in the sediment was measured, and the KI was obtained by subjecting the displacement plots to regression analysis.
In general terms: In a radioligand displacement assay an active substance lowers the binding of a labelled ligand.

In a further assay the target is AMPA receptors. Briefly: Binding of 3H-AMPA (displacement from rat cerebra membrane material). Conditions: displacement of 3H-AMPA, rat cerebra membranes, pH 7.1, on ice 60 minutes. How it is done:
as §1
1. Binding of ^3 H-2-amino-3-hydroxy-5-methyl-4-isoxazolepropionic acid (^3 H-AMPA)
To prepare the membrane material, freshly removed rat cerebra were homogenized together with 15 times the volume of a buffer solution A composed of 30 mM α,α,α-tris(hydroxymethyl)methylamine hydrochloride (TRIS-HCl) and 0.5 mM ethylenediaminetetraacetic acid (EDTA), pH 7.4, using an Ultra-Turrax. […]
For the binding assay, the protein material was thawed at 37° C. and washed twice by centrifuging at 48,000 g (20 minutes) and subsequently suspending in a buffer solution B composed of 50 mM TRIS-HCl, 0.1M potassium thiocyanate and 2.5 mM calcium chloride, pH 7.1. […] The radioactivity of the bound ^3 H-AMPA in the membrane material was measured by scintillation counting and then the KI was determined by subjecting the displacement plots to regression analysis.

By Ki is commonly meant the dissociation constant of the complex between target and ligand, obtained from inhibition or displacement. In assay [1], `Cc1cc2nc(=O)n3[nH]c(C(=O)O)nc3c2cc1C` [8,9-Dimethyl-1,2,4-triazolo[1,5-c]-quinazolin-5-one-2-carboxylic acid] displayed a Ki of 90 nM. In other words, the double-digit nanomolar range.
With `O=C(O)c1nc2c3c(Cl)cc(Cl)cc3nc(=O)n2[nH]1` [8,10-Dichloro-1,2,4-triazolo[1,5-c]-quinazolin-5-one-2-carboxylic acid], the inhibition constant Ki was found to be 1300 nM on AMPA receptors and 200 nM in assay [1].
The compound `O=C(O)c1nc2c3ccc([N+](=O)[O-])cc3nc(=O)n2[nH]1` [8-Nitro-1,2,4-triazolo[1,5-c]-quinazolin-5-one-2-carboxylic acid] gave a Ki on AMPA receptors of 2600 nM.
The same measure, in the same setting: the result for `O=C(O)c1nc2c3ccc(C(F)(F)F)cc3nc(=O)n2[nH]1` [8-Trifluoromethyl-1,2,4-triazolo[1,5-c]-quinazolin-5-one-2-carboxylic acid] reads 1400 nM.
As to `CCOC(=O)c1nc2c3cc(C)c(C)cc3nc(=O)n2[nH]1` [Ethyl 8,9-dimethyl-1,2,4-triazolo-[1,5-c]-quinazolin-5-one-2-carboxylate], the affinity in assay [1] corresponds to a Ki of 160 nM. That is a sub-micromolar value.
